Biological target: T1, Recombinant human HSP90a (Homo sapiens, UniProt P07900)
T1 construct: host or cells: E. coli
Experiment: HSP90 radioligand filter binding test ([3H]17AAG competition)
Conditions: [3H]17AAG 0.08 μM, HSP90 1.5 μg/assay, 22° C., 30 min; read-out: IC50 (HSP90 inhibition)
Excerpt: Test Method for the Measurement of HSP90 Inhibitors
The binding of geldanamycin or 17-allylamino-17-demethoxygeldanamycin (17AAG) to HSP90 and competitive inhibition thereof can be utilised in order to determine the inhibitory activity of the compounds according to the invention (Carreras et al. 2003, Chiosis et al. 2002).
In the specific case, a radioligand filter binding test is used. The radioligand used here is tritium-labelled 17-allylaminogeldanamycin, [3H]17AAG. This filter binding test allows a targeted search for inhibitors which interfere with the ATP binding site.
Recombinant human HSP90a (E. coli expressed, 95% purity);
[3H]17AAG (17-allylaminogeldanamycin, [allylamino-2,3-^3H. Specific activity: 1.11×10^12 Bq/mmol (Moravek, MT-1717);
HEPES filter buffer (50 mM HEPES, pH 7.0, 5 mM MgCl2, BSA 0.01%)
Multiscreen FB (1 μm) filter plate (Millipore, MAFBNOB 50).
The 96-well microtitre filter plates are firstly irrigated and coated with 0.1% of polyethylenimine.
The test is carried out under the following conditions:
Reaction temperature 22° C.
Reaction time: 30 min., shaking at 800 rpm
50 mM HEPES HCl, pH 7.0, 5 mM MgCl2, 0.01% (w/v) of BSA
At the end of the reaction, the supernatant in the filter plate is removed by suction with the aid of a vacuum manifold (Multiscreen Separation System, Millipore), and the filter is washed twice.
The filter plates are then measured in a beta counter (Microbeta, Wallac) with scintillator (Microscint 20, Packard).
“% of control” is determined from the “counts per minutes” values, and the IC-50 value of a compound is calculated therefrom.

Row | SMILES | IC50
1 | Nc1nc(C(=O)N2Cc3ccccc3C2)c2cc(-c3ccccc3S(=O)(=O)N3CC[C@H](F)C3)ccc2n1 [Compound A67, {2-Amino-6-[2-((S)-3-fluoropyrrolidine-1-sulfonyl)phenyl]quinazolin-4-yl}-(1,3-dihydroisoindol-2-yl)methanone] | 10 to 1000 nM
2 | CC(CN(C)C)NS(=O)(=O)c1ccccc1-c1ccc2nc(N)nc(C(=O)N3Cc4ccccc4C3)c2c1 (stereo not drawn) [Compound A17] | 10 to 1000 nM
3 | C[C@@H]1CCCN1C(=O)c1ccccc1-c1ccc2nc(N)nc(C(=O)N3Cc4ccccc4C3)c2c1 [Compound A63] | 10 to 1000 nM
4 | C[N+]1([O-])CCN(S(=O)(=O)c2ccccc2-c2ccc3nc(N)nc(C(=O)N4Cc5ccccc5C4)c3c2)CC1 [Compound A7] | 10 to 1000 nM
5 | Nc1nc(C(=O)N2Cc3ccccc3C2)c2cc(-c3ccccc3C(=O)NC3CC3)ccc2n1 [Compound A48, 2-[2-Amino-4-(1,3-dihydroisoindole-2-carbonyl)quinazolin-6-yl]-N-cyclopropylbenzamide] | 10 to 1000 nM
6 | Cc1cn(S(=O)(=O)c2ccccc2-c2ccc3nc(N)nc(C(=O)N4Cc5ccccc5C4)c3c2)cn1 [Compound A30, {2-Amino-6-[2-(4-methylimidazole-1-sulfonyl)phenyl]quinazolin-4-yl}-(1,3-dihydroisoindol-2-yl)methanone] | 10 to 1000 nM

Next, values leading:

Row | IC50 | SMILES
7 | 10 to 1000 nM | CC1CCC(C)N1S(=O)(=O)c1ccccc1-c1ccc2nc(N)nc(C(=O)N3Cc4ccccc4C3)c2c1 (stereo not drawn) [Compound A64, {2-amino-6-[2-(2,5-dimethylpyrrolidine-1-sulfonyl)phenyl]-quinazolin-4-yl}-(1,3-dihydroisoindol-2-yl)methanone]
8 | 10 to 1000 nM | CN(CCO)S(=O)(=O)c1ccccc1-c1ccc2nc(N)nc(C(=O)N3Cc4ccccc4C3)c2c1 [Compound A8]
9 | 10 to 1000 nM | Nc1nc(C(=O)N2Cc3ccccc3C2)c2cc(-c3ccccc3C(=O)N3CCC(O)C3)ccc2n1 (stereo not drawn) [Compound A36]
10 | 1000 to 10000 nM | CNC(=O)C1CCCN1C(=O)c1ccccc1-c1ccc2nc(N)nc(C(=O)N3Cc4ccccc4C3)c2c1 (stereo not drawn) [Compound A50, 1-{2-[2-amino-4-(1,3-dihydroisoindole-2-carbonyl)quinazolin-6-yl]benzoyl}pyrrolidine-2-methylamide]
11 | 10 to 1000 nM | Nc1nc(C(=O)N2Cc3ccccc3C2)c2cc(-c3ccccc3S(=O)(=O)N3CCCC3C(=O)NCCO)ccc2n1 (stereo not drawn) [Compound A61, N-(2-hydroxyethyl)-1-{2-[2-amino-4-(1,3-dihydroisoindole-2-carbonyl)quinazolin-6-yl]benzenesulfonyl}pyrrolidine-2-carboxamide]
12 | 10 to 1000 nM | CCN(C)C(=O)c1cc(F)c(F)cc1-c1ccc2nc(N)nc(C(=O)N3Cc4ccccc4C3)c2c1 [Compound A77, 2-[2-Amino-4-(1,3-dihydroisoindole-2-carbonyl)quinazolin-6-yl]-N-ethyl-4,5-difluoro-N-methylbenzamide]
13 | 10 to 1000 nM | CC(C)(C)NC(=O)c1cc(F)c(F)cc1-c1ccc2nc(N)nc(C(=O)N3Cc4ccccc4C3)c2c1 [Compound A81, 2-[2-Amino-4-(1,3-dihydroisoindole-2-carbonyl)quinazolin-6-yl]-N-tert-butyl-4,5-difluorobenzamide]
14 | 10 to 1000 nM | CC1CCC(C)N1C(=O)c1ccccc1-c1ccc2nc(N)nc(C(=O)N3Cc4ccccc4C3)c2c1 (stereo not drawn) [Compound A57]
15 | 10 to 1000 nM | Nc1nc(C(=O)N2Cc3ccccc3C2)c2cc(-c3ccccc3S(=O)(=O)N3CCCC3)ccc2n1 [Compound A32, {2-Amino-6-[2-(pyrrolidine-1-sulfonyl)phenyl]quinazolin-4-yl}-(1,3-dihydroisoindol-2-yl)methanone]
